According to ChEMBL document CHEMBL2380261, “Analogs design, synthesis and biological evaluation of peptidomimetics with potential anti-HCV activity” (Bioorg Med Chem, 2013):

What was measured:
Hepatitis C virus = test: microbe, parasite or virus in culture; type: functional, organism-based, Hepacivirus hominis; conditions: genotype 2a J6/JFH, Huh-7, 48 h
Description: Antiviral activity against Hepatitis C virus subtype 2a J6/JFH transfected in human Huh7.5 cells assessed as inhibition of viral replication after 48 hrs by luciferase reporter gene assay

[1] = Safety index, ratio of CC50 for human Huh7.5 cells to EC50 for Hepatitis C virus subtype 2a J6/JFH
[2] = Cytotoxicity against human Huh7.5 cells assessed as cell viability after 48 hrs by Alamar blue assay
[3] = Inhibition of HCV NS3 protease (1027 to 1206) after 30 mins in presence of Pep4AK; set-up: species or system Hepacivirus hominis

SMILES	EC50 (Hepatitis C virus)	IC50 [3]	selectivity ratio [1]	CC50 at 48 h [2]
CCOS(=O)(=O)/C=C/[C@H](Cc1ccccc1)NC(=O)OC(C)(C)C	1210 nM	–	2.88	3500 nM
CCOS(=O)(=O)/C=C/[C@@H](NC(C)=O)[C@@H](C)O	4360 nM	–	6.36	27700 nM
COC(=O)[C@H](C)NC(=O)CCC(=O)/C=C/c1ccccc1	960 nM	–	1.37	1320 nM
COC(=O)[C@@H](NC(=O)CCC(=O)/C=C/c1ccccc1)C(C)C	381 nM	–	3.88	1480 nM
COC(=O)[C@H](C)NC(=O)CCC(=O)/C=C/c1cccnc1	900 nM	–	2.34	2110 nM
COC(=O)[C@@H](NC(=O)CCC(=O)/C=C/c1cccnc1)C(C)C	1140 nM	–	1.38	1570 nM
COC(=O)[C@@H](NC(=O)CCC(=O)/C=C/c1ccc2c(c1)OCO2)C(C)C	682 nM	–	2.83	1390 nM

Continued, in another order:

EC50 (Hepatitis C virus)	IC50 [3]	SMILES	selectivity ratio [1]	CC50 at 48 h [2]
22500 nM	–	CC(C)[C@H](NC(=O)CCC(=O)/C=C/c1ccccc1)C(=O)O	> 4.45	> 100000 nM
5440 nM	–	C[C@H](NC(=O)CCC(=O)/C=C/c1ccc2c(c1)OCO2)C(=O)O	2.22	12100 nM
296 nM	–	CCOS(=O)(=O)/C=C/[C@H](Cc1ccccc1)NC(=O)CCC(=O)/C=C/c1ccccc1	–	1000 nM
2110 nM	–	CCOS(=O)(=O)/C=C/[C@H](Cc1ccccc1)NC(C)=O	3.75	7910 nM
–	700 nM	CC(C)C[C@H](NC(=O)[C@]1(Cc2ccsc2C(=O)O)Cc2ccccc2N1)C(=O)N[C@@H](CC(F)F)C(=O)C(=O)O	–	–
347 nM	–	COC(=O)[C@H](C)NC(=O)CCC(=O)/C=C/c1ccc2c(c1)OCO2	3.19	1110 nM
800 nM	–	CC(C)(C)NC(=O)N[C@H](C(=O)N1C[C@H]2[C@@H]([C@H]1C(=O)NC(CC1CCC1)C(=O)C(N)=O)C2(C)C)C(C)(C)C (stereo partly drawn) [BOCEPREVIR]	–	> 100000 nM
